Results reported in EPA's ToxRefDB 2.

Key:
rat [1] = settings: Multigenerational reproductive toxicity study, wistar, Oral, Feed, dose end: 2 generation
rat [2] = settings: Peri- and post-natal toxicity study (Segment III), wistar, Oral, [Not Specified], dose end: 21 PND
rat [3] = settings: Combined chronic toxicity/carcinogenicity, other, Oral, Feed, dose end: 104 week, group: systemic
dog = settings: Chronic toxicity, beagle, Oral, Capsule, dose end: 52 week, group: systemic
mouse [4] = settings: Combined chronic toxicity/carcinogenicity; other; Oral; Feed; dose end: 101 week; group: systemic; systemic / pathology microscopic / liver / enlarged vacuoles + systemic / pathology microscopic / liver / focal cellular change + systemic…
mouse [5] = settings: Prenatal developmental toxicity study, cd1, Oral, Gavage/Intubation, dose end: 16 GD
mouse [6] = settings: Subchronic oral toxicity in rodents, Feed, dose end: 90 day, group: systemic, systemic / pathology microscopic / liver / clear cell focus + systemic / pathology microscopic / liver / [other] + systemic / clinical …
rat [7] = settings: Subchronic oral toxicity in rodents, wistar, Feed, dose end: 6 month, group: systemic
rat [8] = settings: Subchronic oral toxicity in rodents, wistar, Feed, dose end: 3 month, group: systemic
mouse [9] = settings: Prenatal developmental toxicity study, cd1, Oral, Gavage/Intubation, dose end: 16 GD, group: maternal
[10] = group: offspring, developmental / offspring survival late / viability index / viability index + developmental / offspring survival late / lactation index / …
[11] = group: offspring, developmental / offspring survival late / viability index / viability index + reproductive / offspring survival early / dead fetuses / dead …
[12] = group: parental, systemic / in life observation / body weight / body weight gain
[13] = group: parental, systemic / in life observation / body weight / body weight gain + systemic / in life observation / body weight / body weight + systemic / …
[14] = group: reproductive, reproductive / reproductive performance / gestational length / gestational length + reproductive / reproductive performance / dystocia / …
[15] = group: developmental, developmental / offspring survival late / viability index / viability index
[16] = group: maternal, reproductive / offspring survival early / dead fetuses / dead fetuses + reproductive / offspring survival early / litter size / litter size
[17] = group: parental, systemic / in life observation / food consumption / food consumption + systemic / in life observation / mortality / mortality
[18] = systemic / pathology microscopic / thyroid gland / neoplasm nos + systemic / in life observation / body weight / body weight + systemic / in…
[19] = systemic / clinical chemistry / alkaline phosphatase (alp/alk) / alkaline phosphatase (alp/alk) + systemic / in life observation / body …
[20] = group: developmental, developmental / developmental malformation / bone / supernumerary
[21] = group: developmental, developmental / developmental malformation / bone / supernumerary + developmental / developmental malformation / bone / [other] + …
[22] = group: maternal, reproductive / reproductive performance / estrous cycle / corpora lutea
[23] = systemic / clinical chemistry / glucose / glucose
[24] = systemic / clinical chemistry / glucose / glucose + systemic / clinical chemistry / lactic acid dehydrogenase (ldh) / lactic acid …
[25] = systemic / organ weight / adrenal gland / absolute + systemic / organ weight / adrenal gland / relative to body weight + systemic / …
[26] = systemic / in life observation / body weight / body weight gain + systemic / in life observation / body weight / dam weight + systemic / in …

C=CCOC(Cn1ccnc1)c1ccc(Cl)cc1Cl (centres undefined) [Imazalil]
LEL (rat [1]; [10]): 5 mg/kg/day | NEL (rat [1]; [10]): < 5 mg/kg/day | LOAEL (rat [1]; [11]): 80 mg/kg/day | NOAEL (rat [1]; [11]): 20 mg/kg/day | NEL (rat [1]; [12]): 20 mg/kg/day | NOAEL (rat [1]; [12]): 20 mg/kg/day | LEL (rat [1]; [13]): 80 mg/kg/day | LOAEL (rat [1]; [13]): 80 mg/kg/day | LOAEL (rat [1]; group: reproductive, reproductive / reproductive performance / gestational length / gestational length): 80 mg/kg/day | LEL (rat [1]; [14]): 80 mg/kg/day | NEL (rat [1]; [14]): 20 mg/kg/day | NOAEL (rat [1]; [14]): 20 mg/kg/day | LEL (rat [2]; [15]): 80 mg/kg/day | LOAEL (rat [2]; [15]): > 80 mg/kg/day | NEL (rat [2]; [15]): 20 mg/kg/day | NOAEL (rat [2]; [15]): ≥ 80 mg/kg/day | LEL (rat [2]; [16]): 80 mg/kg/day | LOAEL (rat [2]; [16]): > 80 mg/kg/day | NEL (rat [2]; [16]): 20 mg/kg/day | NOAEL (rat [2]; [16]): ≥ 80 mg/kg/day | LEL (rat [2]; [17]): 80 mg/kg/day | LOAEL (rat [2]; [17]): > 80 mg/kg/day | NEL (rat [2]; [17]): 20 mg/kg/day | NOAEL (rat [2]; [17]): ≥ 80 mg/kg/day | LEL (rat [3]; systemic / pathology microscopic / liver / pigmentation): 14.6 mg/kg/day | NEL (rat [3]; systemic / pathology microscopic / liver / pigmentation + systemic / clinical chemistry / alanine aminotransferase (alt/sgpt) / alanine …): 3.6 mg/kg/day | LOAEL (rat [3]; [18]): 65.8 mg/kg/day | NOAEL (rat [3]; [18]): 10.8 mg/kg/day | LOAEL (dog; [19]): 20 mg/kg/day | NEL (dog; [19]): 1.25 mg/kg/day | NOAEL (dog; [19]): 2.5 mg/kg/day | LEL (dog; systemic / organ weight / liver / absolute + systemic / organ weight / liver / relative to body weight): 2.5 mg/kg/day | LEL (mouse [4]): 28 mg/kg/day | LOAEL (mouse [4]): 28 mg/kg/day | NEL (mouse [4]): 6.67 mg/kg/day | NOAEL (mouse [4]): 6.67 mg/kg/day | LEL (mouse [5]; [20]): 80 mg/kg/day | LOAEL (mouse [5]; [20]): 80 mg/kg/day | NEL (mouse [5]; [21]): 40 mg/kg/day | NOAEL (mouse [5]; [21]): 40 mg/kg/day | LEL (mouse [5]; [22]): 10 mg/kg/day | NEL (mouse [5]; [22]): < 10 mg/kg/day | LOAEL (mouse [5]; group: maternal, systemic / in life observation / body weight / body weight gain + systemic / in life observation / food consumption / food consumption): 40 mg/kg/day | NOAEL (mouse [5]; group: maternal, systemic / in life observation / body weight / body weight gain + systemic / in life observation / food consumption / food consumption + …): 10 mg/kg/day | LEL (mouse [6]): 38.6 mg/kg/day | LOAEL (mouse [6]): 38.6 mg/kg/day | NEL (mouse [6]): 9.5 mg/kg/day | NOAEL (mouse [6]): 9.5 mg/kg/day | LEL (rat [7]; [23]): 1.25 mg/kg/day | NEL (rat [7]; [23]): < 1.25 mg/kg/day | LOAEL (rat [7]; [24]): 20 mg/kg/day | NOAEL (rat [7]; [24]): 5 mg/kg/day | LOAEL (rat [8]; [25]): 37.9 mg/kg/day | NOAEL (rat [8]; [25]): 18.7 mg/kg/day | NEL (rat [8]; systemic / organ weight / liver / absolute + systemic / organ weight / adrenal gland / absolute + systemic / organ weight / adrenal gland / …): 90.1 mg/kg/day | LOAEL (mouse [9]; systemic / in life observation / body weight / body weight gain): 80 mg/kg/day | LEL (mouse [9]; [26]): 80 mg/kg/day | NEL (mouse [9]; [26]): 40 mg/kg/day | NOAEL (mouse [9]; [26]): 40 mg/kg/day
